Measurements published in ChEMBL document CHEMBL6096699, “Tröger's Base as a Potential Bridge to Type-I Photosensitizers: Mechanism and Antitumor Applications” (J Med Chem, 2025).
Activity calls are given as the source filed them. The rule behind the calls is not given here.

How the values were obtained:
[1] = Induction of type-1 ROS generation in methanol assessed as generation of OH at 0.5 uM followed by Xe lamp irradiation for 5 mins by DCFH staining based analysis; type: functional
[2] = Induction of type-1 ROS generation in tetrahydrofuran assessed as fold increase in DHR123 fluorescence intensity at 0.5 uM followed by LED white light irradiation at 1.8 mWcm/2 for 300 sec by DCFH staining based analysis; type: functional
[3] = Photophysical property of the compound assessed as fluorescence quantum yield; type: physicochemical
[4] = Induction of type-1 ROS generation in tetrahydrofuran at 0.5 uM followed by LED white light irradiation at 1.8 mWcm/2 for 300 sec by DCFH staining based analysis; type: functional
[5] = Dark toxicity in human HBE cells assessed as cell viability incubated for 24 hrs in dark by MTT assay; type: cell-based
[6] = Induction of type-1 ROS generation in methanol assessed as generation of O2 at 0.5 uM followed by Xe lamp irradiation for 5 mins by DCFH staining based analysis; type: functional
A549 [7] = assay: Inhibition of cell migration in human A549 cells assessed as appearance of blurred cells at 0.25 uM preincubated for 12 hrs followed by incubation under dark condition and measured after 48 hrs by wound healing assay; type: functional, cell-based; conditions: time 60.0 hrs
[8] = Developmental toxicity in wild type AB zebrafish assessed as effect on morphological abnormalities at 1.57 to 50 uM incubated for 72 hrs under dark condition; design: species or system Danio rerio; conditions: in vivo, dose 1.57-50 µM
A549 [9] = assay: Induction of apoptosis in human A549 cells assessed as upregulation of cleaved PARP expression at 2.5 to 5 uM with irradiation of LED light at 1.8 mW cm/2 by Western blot analysis; type: functional, cell-based; conditions: dose 2.5-5 µM
A549 [10] = assay: Induction of apoptosis in human A549 cells assessed as upregulation of cleaved caspase-3 expression at 2.5 to 5 uM with irradiation of LED light at 1.8 mW cm/2 by Western blot analysis; type: functional, cell-based; conditions: dose 2.5-5 µM
A549 [11] = assay: Inhibition of cell migration in human A549 cells at 0.25 uM preincubated for 12 hrs followed by incubation under dark condition and measured after 48 hrs by wound healing assay; type: functional, cell-based; conditions: time 60.0 hrs
Mitochondrial membrane [12] = assay: Induction of mitochondrial membrane potential loss in human A549 cells assessed as decrease in red fluorescence of JC-1 aggregates at 0.4 to 1.2 uM incubated for 24 hrs with irradiation of LED light at 1.8 mW cm/2 by light microscopy analysis; type: cell membranes; conditions: dose 0.4-1.2 µM
HepG2 = assay: Phototoxicity against human HepG2 cells assessed as reduction in cell proliferation at 0.156 to 10 uM irradiated with LED light at 1.8 mWcm/2 for 2 hrs and measured after 24 hrs under normoxia condition by MTT assay; type: functional, cell-based; conditions: dose 0.156-10 µM, time 26.0 hrs
[13] = target: Signal transducer and activator of transcription 3 (Homo sapiens) (UniProt P40763); assay: Inhibition of STAT3 pathway in human A549 cells assessed as decrease in STAT3 protein expression at 2.5 to 5 uM by Western blot analysis; type: cell-based; conditions: dose 2.5-5 µM
A549 [14] = assay: Activation of MAPK pathway in human A549 cells assessed as effect on MAPK protein expression at 2.5 to 5 uM by Western blot analysis; type: cell-based; conditions: filed as activator, dose 2.5-5 µM
[15] = Developmental toxicity in wild type AB zebrafish assessed as effect on heart at 50 uM incubated for 72 hrs followed by LED light irradiation at 1.8 mW cm/2 relative to control; design: species or system Danio rerio; conditions: in vivo
A549 [16] = assay: Inhibition of cell migration in human A549 cells assessed as appearance of blurred cells at 0.25 uM preincubated for 12 hrs followed by LED light irradiation 1.8 mW cm/2 for 2 hrs and measured after 48 hrs by wound healing assay; type: functional, cell-based; conditions: time 62.0 hrs
A549 [17] = assay: Antitumor activity in human A549 cells xenografted in Ab wild type Zebrafish embryos assessed as decrease in tumor growth by measuring fluorescence intensity at 2.9 to 5.8 ng preincubated for 12 hrs followed by irradiation of LED light of 1.8 mW cm/2 for 2 hrs and measured after 48 to 72 hrs; type: functional, cell-based; conditions: dose 2.9-5.8 ng, time 62-86 hrs
Mitochondrial membrane [18] = assay: Induction of mitochondrial membrane potential loss in human A549 cells assessed as increase in green fluorescence of JC-1 monomers at 0.4 to 1.2 uM incubated for 24 hrs with irradiation of LED light at 1.8 mW cm/2 by light microscopy analysis; type: cell membranes; conditions: dose 0.4-1.2 µM
A549 [19] = assay: Activation of ERK1/2 pathway in human A549 cells assessed as increase in ERK phosphorylation level at 2.5 to 5 uM by Western blot analysis; type: cell-based; conditions: filed as activator, dose 2.5-5 µM
A549 [20] = assay: Inhibition of cell migration in human A549 cells assessed as appearance of loose cells at 0.25 uM preincubated for 12 hrs followed by incubation under dark condition and measured after 48 hrs by wound healing assay; type: functional, cell-based; conditions: time 60.0 hrs
A549 [21] = assay: Induction of apoptosis in human A549 cells assessed as upregulation of cleaved Bax expression at 2.5 to 5 uM with irradiation of LED light at 1.8 mW cm/2 by Western blot analysis; type: functional, cell-based; conditions: dose 2.5-5 µM
[22] = target: T1, c-Jun N-terminal kinase, JNK (Homo sapiens) (UniProt P45983+P53779+P45984); assay: Activation of JNK pathway in human A549 cells assessed as effect on JNK protein expression at 2.5 to 5 uM by Western blot analysis; type: cell-based; conditions: filed as activator, dose 2.5-5 µM
[23] = Developmental toxicity in wild type AB zebrafish assessed as survival rate at 50 uM incubated for 72 hrs under condition relative to control; design: species or system Danio rerio; conditions: in vivo
A549 [24] = assay: Inhibition of cell migration in human A549 cells assessed as appearance of loose cells at 0.25 uM preincubated for 12 hrs followed by LED light irradiation 1.8 mW cm/2 for 2 hrs and measured after 48 hrs by wound healing assay; type: functional, cell-based; conditions: time 62.0 hrs
A549 [25] = assay: Induction of intracellular ROS generation in human A549 cells by measuring red fluorescence at 0.4 to 1.2 uM incubated for 24 hrs in presence of LED light irradiation at 1.8 mW cm/2 by DHE based fluorescence microscopy analysis; type: functional, cell-based; conditions: dose 0.4-1.2 µM
[26] = Developmental toxicity in wild type AB zebrafish assessed as effect on heart at 50 uM incubated for 72 hrs under dark condition; design: species or system Danio rerio; conditions: in vivo
[27] = Phototoxicity against human A549 cells assessed as reduction in cell proliferation irradiated with LED light at 1.8 mWcm/2 for 2 hrs and measured after 24 hrs under normoxia condition by MTT assay; type: functional, cell-based; conditions: A549, light or radiation study
[28] = Developmental toxicity in wild type AB zebrafish assessed as effect on morphological abnormalities at 1.57 to 50 uM incubated for 72 hrs followed by LED light irradiation at 1.8 mW cm/2; design: species or system Danio rerio; conditions: in vivo, dose 1.57-50 µM
[29] = Developmental toxicity in wild type AB zebrafish assessed as hatching rate at 50 uM incubated for 72 hrs followed by LED light irradiation at 1.8 mW cm/2 relative to control; design: species or system Danio rerio; conditions: in vivo
[30] = target: Signal transducer and activator of transcription 3 (Homo sapiens) (UniProt P40763); assay: Inhibition of STAT3 pathway in human A549 cells assessed as decrease in STAT3 phosphorylation level at 2.5 to 5 uM by Western blot analysis; type: cell-based; conditions: dose 2.5-5 µM
A549 [31] = assay: Induction of intracellular ROS generation in human A549 cells by measuring red fluorescence at 0.4 to 1.2 uM incubated for 24 hrs under dark condition by DHE based fluorescence microscopy analysis; type: functional, cell-based; conditions: dose 0.4-1.2 µM
[32] = Developmental toxicity in wild type AB zebrafish assessed as hatching rate at 50 uM incubated for 72 hrs under dark condition; design: species or system Danio rerio; conditions: in vivo
[33] = Developmental toxicity in wild type AB zebrafish assessed as survival rate at 50 uM incubated for 72 hrs followed by LED light irradiation at 1.8 mW cm/2 relative to control; design: species or system Danio rerio; conditions: in vivo
A549 [34] = assay: Phototoxicity against human A549 cells assessed as reduction in cell proliferation at 0.156 to 10 uM irradiated with LED light at 1.8 mWcm/2 for 2 hrs and measured after 24 hrs under normoxia condition by MTT assay; type: functional, cell-based; conditions: dose 0.156-10 µM, time 26.0 hrs
MDA-MB-231 = assay: Phototoxicity against human MDA-MB-231 cells assessed as reduction in cell proliferation at 0.156 to 10 uM irradiated with LED light at 1.8 mWcm/2 for 2 hrs and measured after 24 hrs under normoxia condition by MTT assay; type: functional, cell-based; conditions: dose 0.156-10 µM, time 26.0 hrs
A549 [35] = assay: Activation of ERK1/2 pathway in human A549 cells assessed as effect on ERK protein expression at 2.5 to 5 uM by Western blot analysis; type: cell-based; conditions: filed as activator, dose 2.5-5 µM
A549 [36] = assay: Induction of apoptosis in human A549 cells assessed as increase in nuclear shrinkage at 2.5 to 5 uM incubated for 30 mins with irradiation of LED light at 1.8 mW cm/2 by Hoechst 33342 staining based light microscopy analysis; type: functional, cell-based; conditions: dose 2.5-5 µM
A549 [37] = assay: Induction of apoptosis in human A549 cells assessed as downregulation of Bcl-2 expression at 2.5 to 5 uM with irradiation of LED light at 1.8 mW cm/2 by Western blot analysis; type: functional, cell-based; conditions: dose 2.5-5 µM
A549 [38] = assay: Induction of apoptosis in human A549 cells assessed as downregulation of caspase-3 expression at 2.5 to 5 uM with irradiation of LED light at 1.8 mW cm/2 by Western blot analysis; type: functional, cell-based; conditions: dose 2.5-5 µM
[39] = Induction of type-2 ROS generation in methanol assessed as generation of single oxygen at 0.5 uM followed by Xe lamp irradiation for 5 mins by DCFH staining based analysis; type: functional
A549 [40] = assay: Activation of MAPK pathway in human A549 cells assessed as increase in MAPK phosphorylation level at 2.5 to 5 uM by Western blot analysis; type: cell-based; conditions: filed as activator, dose 2.5-5 µM
[41] = target: T1, c-Jun N-terminal kinase, JNK (Homo sapiens); assay: Activation of JNK pathway in human A549 cells assessed as increase in JNK phosphorylation level at 2.5 to 5 uM by Western blot analysis; type: cell-based; conditions: filed as activator, dose 2.5-5 µM
A549 [42] = assay: Inhibition of cell migration in human A549 cells at 0.25 uM preincubated for 12 hrs followed by LED light irradiation 1.8 mW cm/2 for 2 hrs and measured after 48 hrs by wound healing assay; type: functional, cell-based; conditions: time 62.0 hrs
[43] = Drug localization in ER of human A549 cells assessed as colocalization by ER-Tracker green staining based analysis; type: ADME, subcellular, Endoplasmic reticulum
[44] = Drug localization in mitochondria of human A549 cells assessed as colocalization by Mitotracker res staining based analysis; type: ADME
MCF7 = assay: Phototoxicity against human MCF7 cells assessed as reduction in cell proliferation at 0.156 to 10 uM irradiated with LED light at 1.8 mWcm/2 for 2 hrs and measured after 24 hrs under normoxia condition by MTT assay; type: functional, cell-based; conditions: dose 0.156-10 µM, time 26.0 hrs

Sequence of Signal transducer and activator of transcription 3 (Homo sapiens) (P40763 whole entry): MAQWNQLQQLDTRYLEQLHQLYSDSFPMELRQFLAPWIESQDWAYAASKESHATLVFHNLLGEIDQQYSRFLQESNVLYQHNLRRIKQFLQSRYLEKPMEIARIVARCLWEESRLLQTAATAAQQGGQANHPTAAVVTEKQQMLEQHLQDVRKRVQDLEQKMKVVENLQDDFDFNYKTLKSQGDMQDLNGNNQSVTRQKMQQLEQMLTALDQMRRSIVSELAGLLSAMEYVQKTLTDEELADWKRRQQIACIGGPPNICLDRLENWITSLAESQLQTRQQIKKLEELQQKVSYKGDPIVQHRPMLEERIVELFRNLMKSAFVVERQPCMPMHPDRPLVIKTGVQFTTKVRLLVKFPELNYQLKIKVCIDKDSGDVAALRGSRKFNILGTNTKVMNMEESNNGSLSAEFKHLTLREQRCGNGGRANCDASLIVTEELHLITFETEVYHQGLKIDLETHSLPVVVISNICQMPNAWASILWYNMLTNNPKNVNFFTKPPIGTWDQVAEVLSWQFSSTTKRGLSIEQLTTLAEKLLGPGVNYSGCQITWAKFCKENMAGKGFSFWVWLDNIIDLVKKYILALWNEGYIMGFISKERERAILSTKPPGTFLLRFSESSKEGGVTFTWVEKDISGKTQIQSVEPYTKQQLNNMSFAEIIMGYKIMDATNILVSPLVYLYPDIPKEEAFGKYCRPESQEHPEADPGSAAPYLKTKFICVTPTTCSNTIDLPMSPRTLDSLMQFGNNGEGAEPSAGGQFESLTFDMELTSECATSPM

CN(C)c1ccc2cc(C(=O)/C=C/c3ccc4c(c3)CN3CN4Cc4cc(Br)ccc43)c(=O)oc2c1
Activity [1]: Active
fold change (FC) [2]: 25.5
Fluorescence quantum yield [3]: 0.16
Activity [4]: Active
Activity [5]: Toxic
Activity [6]: Active

CCN(CC)c1ccc2cc(C(=O)/C=C/c3ccc4c(c3)CN3CN4Cc4cc(Br)ccc43)c(=O)oc2c1
inhibition (A549 [7]): Active
Activity [8]: Non-toxic
Activity (A549 [9]): Active
Activity (A549 [10]): Active
inhibition (A549 [11]): Active
Activity (Mitochondrial membrane [12]): Active
Activity (HepG2): Active
inhibition [13]: Active
Activity (A549 [14]): Active; Compound Showed Little Change In Protein Expression
Activity [15]: Non-toxic
inhibition (A549 [16]): Active
Activity (A549 [17]): Active
Activity (Mitochondrial membrane [18]): Active
Activity (A549 [19]): Active
inhibition (A549 [20]): Active
Activity (A549 [21]): Active
Activity [22]: Active; Compound Showed Little Change In Protein Expression
survival at 72 h, 50 µM [23]: 100%
inhibition (A549 [24]): Active
Activity (A549 [25]): Active
Activity [26]: Non-toxic
IC50 [27]: 460 nM
fold change (FC) [2]: 25.6
Activity [28]: Non-toxic
Activity [29]: 100%
inhibition [30]: Active
Activity (A549 [31]): inactive
Activity [32]: 100%
survival at 72 h, 50 µM [33]: 100%
Activity (A549 [34]): Active
Fluorescence quantum yield [3]: 0.12
Activity (MDA-MB-231): Active
Activity (A549 [35]): Active; Compound Showed Little Change In Protein Expression
Activity (A549 [36]): Active
Activity (A549 [37]): Active
Activity (A549 [38]): Active
Activity [4]: Active
Activity [5]: Toxic
Activity [39]: Active
Activity (A549 [40]): Active
Activity [41]: Active
inhibition (A549 [42]): Active
Drug uptake [43]: Active
Drug uptake [44]: Active
Activity (MCF7): Active
